Measurements from patent US5935597A, “Drug delivery devices and methods for treatment of viral and microbial infections and wasting syndromes” (Cryopreservation Technologies CC, priority 1995, dated 1999).

Key:
[1] = Example 7: plasma/blood DMF level in HIV-1 patients treated with DMF dermal patches; assay type: in vivo; details: human, blood, topical or ocular, 14000 mg
Protocol: Two skin patches were applied to different parts of the patient's body, for example to the forearm. […] The gel served to prevent leakage of liquid DMF from the patches. […] For a patient weighing about 60 kg, an amount of about 14 g over a period of 12 hours is required to produce a level of 100 ppm. Based on studies by Marz and Nohova the surface area required to absorb this amount in about 127,2 cm^2. […] Absorption capability varies from patient to patient depending on factors such as skin-type and skin thickness.
Each patch was applied for a period of 12 hours, either once per week over a period of 12 weeks, or twice per week over a period of 6 weeks.
Daily full clinical and psychological evaluations were also conducted.

[2] = Example 8 pilot study: peak plasma DMF level (GC/MS); assay type: in vivo; details: human, topical or ocular
Protocol: A pilot study was conducted to evaluate the efficacy of transdermal DMF in the treatment of patients infected with HIV. Informed consent was obtained from each patient. Seropositive status was verified by Western blot using a commercial kit for detecting antibodies to p24 (Abbott Diagnostics) and the presence of HIV-1 was documented by quantitative PCR using a commercial kit (Roche Amplicor).
Operational parameters were as follows: GC temperature program: 60° C. for 1 min. followed by a temperature gradient of 9.4° C./min. for 20 min. MS ionization method: electron impact; mass range: 40-80 mass units; 1 scan/sec; peak threshold: 3 counts/sec; background mass: 69 mass units. A stock solution of dimethylacetamide was used as an internal standard. All samples were extracted with an organic solvent containing the internal standard, allowed to precipitate for 30 min. in a refrigerator, and centrifuged at 3000×g for 5 min. before transfer to GC vials for injection.
Dermal patches 9 cm in diameter were used within 12 hours of manufacture. […] The patches were visually inspected to verify the absence of leakage and were weighed on an analytical balance to verify less than 10% deviation from a total mass of 8.153 g. The patches were applied to the skin of the forearm and secured with Elastoplast™ bandages. Either one or two patches were used for the initial dose, as determined from the predicted skin transfer rate of 9.4 mg/cm^2 /hr and the patient's body weight.
A staged dose of DMF was used, with two-hourly blood and urine sampling to determine peak plasma DMF levels. […] Initial evaluation included daily determination of: […]

[3] = water, alcohols and some hydrocarbons; cited from earlier work

With CN(C)C=O [DMF, N,N'-dimethylformamide] the concentration at 12 h [1] was 100 µg/mL, the Cmax ([2]; 3750 mg, Patient 6, two patches once weekly, 6 hours, average weekly dose 3.75 g) was 67 µg/mL and the Cmax ([2]; 4600 mg, Patient 7, 1 patch, 4 hours, average weekly dose 4.60 g) was 100 µg/mL. The Cmax ([2]; 6110 mg, Patient 3, two patches once a week, 8 hours, average weekly dose 6.11 g) was 75 µg/mL, the Cmax ([2]; 6240 mg, Patient 8, two patches once weekly, 8 hours, average weekly dose 6.24 g) was 130 µg/mL and the Cmax ([2]; 7120 mg, Patient 2, one patch per week, 8 hours, average weekly dose 7.12 g) was 125 µg/mL. For the same compound, the Cmax ([2]; 7330 mg, Patient 4, two patches once weekly, 8 hours, average weekly dose 7.33 g) was 90 µg/mL, the Cmax ([2]; 8250 mg, Patient 5, two patches weekly, 8 hours, average weekly dose 8.25 g) was 110 µg/mL and the Cmax ([2]; 8970 mg, Patient 1, two patches once a week, 8 hours, average weekly dose 8.97 g) was 121 µg/mL. For the same compound, the miscibility [3] was “freely miscible with water, alcohols and some hydrocarbons”.
